Measurements reported in patent US11771738B2 (Zoetis Services LLC, priority 2018, dated 2023).
Marks after values point to notes of the source that are not given here.

Tested on: third stage larvae of Haemonchus contortus
Assay: Haemonchus contortus, Larvae Stage 3 (HcL3) In Vitro Assay
Format: cell-based
Conditions: Haemonchus contortus third stage larvae in vitro; class mark appended to the Ex # in Table 3

SMILES | HcL3 MED
Cc1nnsc1C(O)c1ccc(C[C@H]2OC(=O)[C@H](CC(C)C)N(C)C(=O)[C@@H](C)OC(=O)[C@H](CC(C)C)N(C)C(=O)[C@@H](Cc3ccc(C(O)c4snnc4C)cc3)OC(=O)[C@H](CC(C)C)N(C)C(=O)[C@@H](C)OC(=O)[C@H](CC(C)C)N(C)C2=O)cc1 (stereo partly drawn) [Example 3-126] | 3-126* (Examples with an asterisk (*) have HcL3 MED values≤1 μM)
CC(C)C[C@H]1C(=O)O[C@H](Cc2ccc(Cc3cc[nH]n3)cc2)C(=O)N(C)[C@@H](CC(C)C)C(=O)O[C@H](C)C(=O)N(C)[C@@H](CC(C)C)C(=O)O[C@H](Cc2ccc(Cc3cc[nH]n3)cc2)C(=O)N(C)[C@@H](CC(C)C)C(=O)O[C@H](C)C(=O)N1C [Example 3-301] | 3-301^ (Examples with a carrot (^) have HcL3 MED values>1 and ≤3.3 μM)
CC(C)C[C@H]1C(=O)O[C@H](Cc2ccc(Cc3ccnn3CC(C)C)cc2)C(=O)N(C)[C@@H](CC(C)C)C(=O)O[C@H](C)C(=O)N(C)[C@@H](CC(C)C)C(=O)O[C@H](Cc2ccc(Cc3ccnn3CC(C)C)cc2)C(=O)N(C)[C@@H](CC(C)C)C(=O)O[C@H](C)C(=O)N1C [Example 3-211] | 3-211^ (Examples with a carrot (^) have HcL3 MED values>1 and ≤3.3 μM)
CC(C)C[C@H]1C(=O)O[C@H](Cc2ccc(Cc3cccnc3)cc2)C(=O)N(C)[C@@H](CC(C)C)C(=O)O[C@H](C)C(=O)N(C)[C@@H](CC(C)C)C(=O)O[C@H](Cc2ccc(Cc3cccnc3)cc2)C(=O)N(C)[C@@H](CC(C)C)C(=O)O[C@H](C)C(=O)N1C [Example 3-3] | 3-3^ (Examples with a carrot (^) have HcL3 MED values>1 and ≤3.3 μM)
CCCn1nccc1Cc1ccc(C[C@H]2OC(=O)[C@H](CC(C)C)N(C)C(=O)[C@@H](C)OC(=O)[C@H](CC(C)C)N(C)C(=O)[C@@H](Cc3ccc(Cc4ccnn4CCC)cc3)OC(=O)[C@H](CC(C)C)N(C)C(=O)[C@@H](C)OC(=O)[C@H](CC(C)C)N(C)C2=O)cc1 [Example 3-303] | 3-303* (Examples with an asterisk (*) have HcL3 MED values≤1 μM)
CC(C)C[C@H]1C(=O)O[C@H](Cc2ccc(Cc3cnn(C(F)F)c3)cc2)C(=O)N(C)[C@@H](CC(C)C)C(=O)O[C@H](C)C(=O)N(C)[C@@H](CC(C)C)C(=O)O[C@H](Cc2ccc(Cc3cnn(C(F)F)c3)cc2)C(=O)N(C)[C@@H](CC(C)C)C(=O)O[C@H](C)C(=O)N1C [Example 3-119] | 3-119* (Examples with an asterisk (*) have HcL3 MED values≤1 μM)
Cc1nc(C)c(Cc2ccc(C[C@H]3OC(=O)[C@H](CC(C)C)N(C)C(=O)[C@@H](C)OC(=O)[C@H](CC(C)C)N(C)C(=O)[C@@H](Cc4ccc(Cc5sc(C)nc5C)cc4)OC(=O)[C@H](CC(C)C)N(C)C(=O)[C@@H](C)OC(=O)[C@H](CC(C)C)N(C)C3=O)cc2)s1 [Example 3-52] | 3-52* (Examples with an asterisk (*) have HcL3 MED values≤1 μM)
Cc1nc(Cc2ccc(C[C@H]3OC(=O)[C@H](CC(C)C)N(C)C(=O)[C@@H](C)OC(=O)[C@H](CC(C)C)N(C)C(=O)[C@@H](Cc4ccc(Cc5csc(C)n5)cc4)OC(=O)[C@H](CC(C)C)N(C)C(=O)[C@@H](C)OC(=O)[C@H](CC(C)C)N(C)C3=O)cc2)cs1 [Example 3-76] | 3-76^ (Examples with a carrot (^) have HcL3 MED values>1 and ≤3.3 μM)
CC(C)C[C@H]1C(=O)O[C@H](Cc2ccc(Cc3nncs3)cc2)C(=O)N(C)[C@@H](CC(C)C)C(=O)O[C@H](C)C(=O)N(C)[C@@H](CC(C)C)C(=O)O[C@H](Cc2ccc(Cc3nncs3)cc2)C(=O)N(C)[C@@H](CC(C)C)C(=O)O[C@H](C)C(=O)N1C [Example 3-14] | 3-14* (Examples with an asterisk (*) have HcL3 MED values≤1 μM)
CC(C)C[C@H]1C(=O)O[C@H](Cc2ccc(Cc3ccnn3C(C)C)cc2)C(=O)N(C)[C@@H](CC(C)C)C(=O)O[C@H](C)C(=O)N(C)[C@@H](CC(C)C)C(=O)O[C@H](Cc2ccc(Cc3ccnn3C(C)C)cc2)C(=O)N(C)[C@@H](CC(C)C)C(=O)O[C@H](C)C(=O)N1C [Example 3-305] | 3-305* (Examples with an asterisk (*) have HcL3 MED values≤1 μM)
COc1cc(Cc2ccc(C[C@H]3OC(=O)[C@H](CC(C)C)N(C)C(=O)[C@@H](C)OC(=O)[C@H](CC(C)C)N(C)C(=O)[C@@H](Cc4ccc(Cc5cnc(OC)c(OC)c5)cc4)OC(=O)[C@H](CC(C)C)N(C)C(=O)[C@@H](C)OC(=O)[C@H](CC(C)C)N(C)C3=O)cc2)cnc1OC [Example 3-115] | 3-115^ (Examples with a carrot (^) have HcL3 MED values>1 and ≤3.3 μM)
Cc1ncc(Cc2ccc(C[C@H]3OC(=O)[C@H](CC(C)C)N(C)C(=O)[C@@H](C)OC(=O)[C@H](CC(C)C)N(C)C(=O)[C@@H](Cc4ccc(Cc5cnc(C)o5)cc4)OC(=O)[C@H](CC(C)C)N(C)C(=O)[C@@H](C)OC(=O)[C@H](CC(C)C)N(C)C3=O)cc2)o1 [Example 3-298] | 3-298^ (Examples with a carrot (^) have HcL3 MED values>1 and ≤3.3 μM)
COc1cc(Cc2ccc(C[C@H]3OC(=O)[C@H](CC(C)C)N(C)C(=O)[C@@H](C)OC(=O)[C@H](CC(C)C)N(C)C(=O)[C@@H](Cc4ccc(Cc5ccnc(OC)c5)cc4)OC(=O)[C@H](CC(C)C)N(C)C(=O)[C@@H](C)OC(=O)[C@H](CC(C)C)N(C)C3=O)cc2)ccn1 [Example 3-192] | 3-192^ (Examples with a carrot (^) have HcL3 MED values>1 and ≤3.3 μM)

Same assay, conditions: Haemonchus contortus, 96 h, read-out: HcL3 MED, Haemonchus contortus third stage larvae in vitro; class mark appended to the Ex # in Table 3

SMILES | minimal effective concentration [µM]
Cc1cnsc1Cc1ccc(C[C@H]2OC(=O)[C@H](CC(C)C)N(C)C(=O)[C@@H](C)OC(=O)[C@H](CC(C)C)N(C)C(=O)[C@@H](Cc3ccc(Cc4sncc4C)cc3)OC(=O)[C@H](CC(C)C)N(C)C(=O)[C@@H](C)OC(=O)[C@H](CC(C)C)N(C)C2=O)cc1 [Example 3-288, (3S,6R,9S,12R,15S,18R,21S,24R)-3,9,15,21-tetraisobutyl-4,6,10,16,18,22-hexamethyl-12,24-bis(4-((4-methylisothiazol-5-yl)methyl)benzyl)-1,7,13,19-tetraoxa-4,10,16,22-tetraazacyclotetracosan-2,5,8,11,14,17,20,23-octaone] | < 1

Same assay, conditions: Haemonchus contortus, 96 h, read-out: HcL3 MED, approximately 96 hours incubation; multiple-resistant field isolate

SMILES | minimal effective concentration [µM]
Cc1cnsc1Cc1ccc(C[C@H]2OC(=O)[C@H](CC(C)C)N(C)C(=O)[C@@H](C)OC(=O)[C@H](CC(C)C)N(C)C(=O)[C@@H](Cc3ccc(Cc4sncc4C)cc3)OC(=O)[C@H](CC(C)C)N(C)C(=O)[C@@H](C)OC(=O)[C@H](CC(C)C)N(C)C2=O)cc1 [Example 3-288, (3S,6R,9S,12R,15S,18R,21S,24R)-3,9,15,21-tetraisobutyl-4,6,10,16,18,22-hexamethyl-12,24-bis(4-((4-methylisothiazol-5-yl)methyl)benzyl)-1,7,13,19-tetraoxa-4,10,16,22-tetraazacyclotetracosan-2,5,8,11,14,17,20,23-octaone] | ≤ 1

Same assay, conditions: Minimum Effective Dose, H. contortus third stage larvae, approximately 96 hours; listed as (3-288)

SMILES | HcL3 MED [µM]
Cc1cnsc1Cc1ccc(C[C@H]2OC(=O)[C@H](CC(C)C)N(C)C(=O)[C@@H](C)OC(=O)[C@H](CC(C)C)N(C)C(=O)[C@@H](Cc3ccc(Cc4sncc4C)cc3)OC(=O)[C@H](CC(C)C)N(C)C(=O)[C@@H](C)OC(=O)[C@H](CC(C)C)N(C)C2=O)cc1 [Example 3-288, (3S,6R,9S,12R,15S,18R,21S,24R)-3,9,15,21-tetraisobutyl-4,6,10,16,18,22-hexamethyl-12,24-bis(4-((4-methylisothiazol-5-yl)methyl)benzyl)-1,7,13,19-tetraoxa-4,10,16,22-tetraazacyclotetracosan-2,5,8,11,14,17,20,23-octaone] | 0.2

Same assay, conditions: approximately 96 hours incubation; multiple-resistant field isolate

SMILES | HcL3 MED (symbol after Ex#)
Cc1nc(C)c(Cc2ccc(C[C@H]3OC(=O)[C@H](CC(C)C)N(C)C(=O)[C@@H](C)OC(=O)[C@H](CC(C)C)N(C)C(=O)[C@@H](Cc4ccccc4)OC(=O)[C@H](CC(C)C)N(C)C(=O)[C@@H](C)OC(=O)[C@H](CC(C)C)N(C)C3=O)cc2)o1 [Example 4-91] | 4-91^ (Examples with a carrot (^) have HcL3 MED values>1 and ≤3.3 μM)
Cc1nc(Cc2ccc(C[C@H]3OC(=O)[C@H](CC(C)C)N(C)C(=O)[C@@H](C)OC(=O)[C@H](CC(C)C)N(C)C(=O)[C@@H](Cc4ccccc4)OC(=O)[C@H](CC(C)C)N(C)C(=O)[C@@H](C)OC(=O)[C@H](CC(C)C)N(C)C3=O)cc2)co1 [Example 4-83] | 4-83^ (Examples with a carrot (^) have HcL3 MED values>1 and ≤3.3 μM)
Cc1nn(C)cc1Cc1ccc(C[C@H]2OC(=O)[C@H](CC(C)C)N(C)C(=O)[C@@H](C)OC(=O)[C@H](CC(C)C)N(C)C(=O)[C@@H](Cc3ccccc3)OC(=O)[C@H](CC(C)C)N(C)C(=O)[C@@H](C)OC(=O)[C@H](CC(C)C)N(C)C2=O)cc1 [Example 4-3] | 4-3^ (Examples with a carrot (^) have HcL3 MED values>1 and ≤3.3 μM)
Cc1cnc(Cc2ccc(C[C@H]3OC(=O)[C@H](CC(C)C)N(C)C(=O)[C@@H](C)OC(=O)[C@H](CC(C)C)N(C)C(=O)[C@@H](Cc4ccccc4)OC(=O)[C@H](CC(C)C)N(C)C(=O)[C@@H](C)OC(=O)[C@H](CC(C)C)N(C)C3=O)cc2)s1 [Example 4-94] | 4-94^ (Examples with a carrot (^) have HcL3 MED values>1 and ≤3.3 μM)
CC(C)C[C@H]1C(=O)O[C@H](Cc2ccc(Cc3cncs3)cc2)C(=O)N(C)[C@@H](CC(C)C)C(=O)O[C@H](C)C(=O)N(C)[C@@H](CC(C)C)C(=O)O[C@H](Cc2ccccc2)C(=O)N(C)[C@@H](CC(C)C)C(=O)O[C@H](C)C(=O)N1C [Example 4-35] | 4-35^ (Examples with a carrot (^) have HcL3 MED values>1 and ≤3.3 μM)
COc1ncccc1Cc1ccc(C[C@H]2OC(=O)[C@H](CC(C)C)N(C)C(=O)[C@@H](C)OC(=O)[C@H](CC(C)C)N(C)C(=O)[C@@H](Cc3ccccc3)OC(=O)[C@H](CC(C)C)N(C)C(=O)[C@@H](C)OC(=O)[C@H](CC(C)C)N(C)C2=O)cc1 [Example 4-22] | 4-22^ (Examples with a carrot (^) have HcL3 MED values>1 and ≤3.3 μM)
CC(C)C[C@H]1C(=O)O[C@H](Cc2ccc(C(O)c3sccc3Cl)cc2)C(=O)N(C)[C@@H](CC(C)C)C(=O)O[C@H](C)C(=O)N(C)[C@@H](CC(C)C)C(=O)O[C@H](Cc2ccccc2)C(=O)N(C)[C@@H](CC(C)C)C(=O)O[C@H](C)C(=O)N1C (stereo partly drawn) [Example 4-77] | 4-77^ (Examples with a carrot (^) have HcL3 MED values>1 and ≤3.3 μM)
Cc1nc(Cc2ccc(C[C@H]3OC(=O)[C@H](CC(C)C)N(C)C(=O)[C@@H](C)OC(=O)[C@H](CC(C)C)N(C)C(=O)[C@@H](Cc4ccccc4)OC(=O)[C@H](CC(C)C)N(C)C(=O)[C@@H](C)OC(=O)[C@H](CC(C)C)N(C)C3=O)cc2)sc1C [Example 4-115] | 4-115^ (Examples with a carrot (^) have HcL3 MED values>1 and ≤3.3 μM)
Cc1cc(Cc2ccc(C[C@H]3OC(=O)[C@H](CC(C)C)N(C)C(=O)[C@@H](C)OC(=O)[C@H](CC(C)C)N(C)C(=O)[C@@H](Cc4ccccc4)OC(=O)[C@H](CC(C)C)N(C)C(=O)[C@@H](C)OC(=O)[C@H](CC(C)C)N(C)C3=O)cc2)n(C)n1 [Example 4-42] | 4-42^ (Examples with a carrot (^) have HcL3 MED values>1 and ≤3.3 μM)

Tested on: D. immitis L4 larvae
Assay: Dirofilaria immitis, L4 Stage (DiL4) In Vitro Assay
Format: cell-based
Conditions: Minimum Effective Dose, D. immitis L4 larvae motility, in vitro; listed as (3-288)

SMILES | DiL4 MED [nM]
Cc1cnsc1Cc1ccc(C[C@H]2OC(=O)[C@H](CC(C)C)N(C)C(=O)[C@@H](C)OC(=O)[C@H](CC(C)C)N(C)C(=O)[C@@H](Cc3ccc(Cc4sncc4C)cc3)OC(=O)[C@H](CC(C)C)N(C)C(=O)[C@@H](C)OC(=O)[C@H](CC(C)C)N(C)C2=O)cc1 [Example 3-288, (3S,6R,9S,12R,15S,18R,21S,24R)-3,9,15,21-tetraisobutyl-4,6,10,16,18,22-hexamethyl-12,24-bis(4-((4-methylisothiazol-5-yl)methyl)benzyl)-1,7,13,19-tetraoxa-4,10,16,22-tetraazacyclotetracosan-2,5,8,11,14,17,20,23-octaone] | 0.1

Same assay, conditions: larval stage selectivity, ratio of DiMf MED to DiL4 MED; listed as (3-288)

SMILES | DiMf/DiL4
Cc1cnsc1Cc1ccc(C[C@H]2OC(=O)[C@H](CC(C)C)N(C)C(=O)[C@@H](C)OC(=O)[C@H](CC(C)C)N(C)C(=O)[C@@H](Cc3ccc(Cc4sncc4C)cc3)OC(=O)[C@H](CC(C)C)N(C)C(=O)[C@@H](C)OC(=O)[C@H](CC(C)C)N(C)C2=O)cc1 [Example 3-288, (3S,6R,9S,12R,15S,18R,21S,24R)-3,9,15,21-tetraisobutyl-4,6,10,16,18,22-hexamethyl-12,24-bis(4-((4-methylisothiazol-5-yl)methyl)benzyl)-1,7,13,19-tetraoxa-4,10,16,22-tetraazacyclotetracosan-2,5,8,11,14,17,20,23-octaone] | 30
